Reference: patent US20140357512A1, “HISTONE DEACETYLASE (HDAC) BIOMARKERS IN MULTIPLE MYELOMA” (priority 2013, published 2014)

Tested on: human myeloma cell line MM.1S
Test: SILAC acetylated-lysine peptide profiling, HDAC inhibitor vs DMSO (light/heavy ratio)
Format: cell-based
Description: An embodiment of the invention comprises utilizing the SILAC method in order to quantitate changes in protein expression between two or more populations of cells. The SILAC method is a technique based on mass spectrometry that detects differences in protein abundance among samples using non-radioactive isotopic labeling. The SILAC method is known in the art, and described in detail in Ong et al., “Stable Isotope Labeling by Amino Acids in Cell Culture, SILAC, as a Simple and Accurate Approach to Expression Proteomics”, Molecular & Cellular Proteomics, vol. 1, pp. 376-386 (2002), which is incorporated herein by reference in its entirety.
Briefly, the SILAC method involves growing two populations of cells in cell culture. The first population of cells is grown in growth media containing normal amino acids (“normal media”). The second population of cells is grown in media lacking a standard essential amino acid (such as lysine), but is then supplemented with a non-radioactive, isotopically labeled form of that essential amino acid (such as lysine labeled with ^13C atoms, rather than normal ^12C atoms), which is called “heavy media”. When the two populations of cells are each growing in the medium, they incorporate the amino acids into all of their proteins. The growth of cells maintained in the heavy media is no different from that in normal media. All peptides containing the heavy amino acids are heavier than their normal counterparts. The cells from each of the two populations of cells are lysed. The lysates from each of the two cell populations are then combined. The combined cell lysates are then analyzed by mass spectrometry. Pairs of chemically identical peptides of different stable isotope composition can be differentiated in a mass spectrometer due to their difference in mass. The ratio of peak intensities in the mass spectrum for such peptide pairs reflects the abundance ratio for the two proteins.
This example describes SILAC studies that were performed to compare the effects of three different HDAC inhibitors (Compound A, Compound B, and tubastatin A) to a control on a human multiple myeloma cell line. The HDAC inhibitors were also compared amongst themselves to determine differences in their effects.
A human myeloma cell line MM.1S was grown using either ^12C (light) or ^13C (heavy) lysine containing culture medium. The “heavy” cells were treated with DMSO as the control, and the “light” cells were treated with a single HDAC inhibitor at 37° C. for 6 hours. The heavy and light cells were lysed, and the lysates were mixed in 1:1 ratio and digested with the protease trypsin. The acetylated lysine containing peptides (due to the action of the HDAC inhibitor) in the digested peptide pool were captured by a non-specific anti-acetylated lysine antibody cocktail (the antibodies identify both light and heavy acetylated peptides), and subjected to mass spectrometry analysis in order to identify thousands of individual peptides.
Thousands of peptides were identified in pairs (^12C and ^13C) due to their known mass differences. The amino acid sequence and quantitative ratio (Light/Heavy) of a given peptide in two differentially treated cell lysates were then determined and annotated with their possible protein (gene) sources.
As stated above, three HDAC inhibitors (Compound A, Compound B, and Tubastatin A) were used. Thus, the SILAC method was performed three times, with a different HDAC inhibitor compared to a control each time. Accordingly, there are three pairs of quantitative data in the table below, i.e., Compound A:DMSO, Compound B:DMSO, and Tubastatin A:DMSO. A cut-off of 1.30 fold of change (increase or decrease) was then used to determine “changed” or “+” in the table, and any peptides with a fold of change less than 1.3 fold were determined to be “unchanged” or “0” in the table. Those peptides that were not identified were marked as “NA” in the table. […]

O=C(NO)c1cnc(NC2(c3cccc(F)c3)CCCCC2)nc1 [Compound B, 2-((1-(3-fluorophenyl)cyclohexyl)amino)-N-hydroxypyrimidine-5-carboxamide]
−0.57 log 2: L/H ratio of acetylated peptide (VAHLALK(ac)HR (SEQ ID NO: 436), Isoform Rpn10A of 26S proteasome non-ATPase regulatory subunit 4 [9]8, PSMD4)
−0.56 log 2: L/H ratio of acetylated peptide (TFYQMYDK(ac)GLVYR (SEQ ID NO: 407), Isoleucyl-tRNA synthetase mitochondrial [233], IARS2)
−0.86 log 2: L/H ratio of acetylated peptide (TPSVGK(ac)[…] (SEQ ID NO: 418), Isoform Long of Antigen KI-67 [2264], MKI67)
−0.74 log 2: L/H ratio of acetylated peptide (SFYYK(ac)LR (SEQ ID NO: 395), Fatty acid synthase [2426], FASN)
0.40 log 2: L/H ratio of acetylated peptide (TTTCSK(ac)LAYYYQR (SEQ ID NO: 451), Signal recognition particle 54 kDa protein [120], SRP54)
0.00 log 2: L/H ratio of acetylated peptide (ac)AEK(ac)FDCHYCR (SEQ ID NO: 725, four and a half LIM domains protein 1 isoform 5 [20], FHL1) | L/H ratio of acetylated peptide […](ac)VIPK (SEQ ID NO: 726, Endoplasmic reticulum resident protein 29 [48], ERP29) | L/H ratio of acetylated peptide TITMK(ac)QLLR (SEQ ID NO: 728, Branched-chain-amino-acid aminotransferase [281], BCAT2) | L/H ratio of acetylated peptide SK(ac)FVLVK (SEQ ID NO: 729, Endoplasmic reticulum resident protein 29 [54], ERP29) | L/H ratio of acetylated peptide TVGQLYK(ac)EQLAK (SEQ ID NO: 731, Isoform 1 of Myosin-9 [651], MYH9) | L/H ratio of acetylated peptide AAETCQEPK(ac)EFR (SEQ ID NO: 732, NADH dehydrogenase [ubiquinone] 1 alpha subcomplex assembly factor 4 [91], NDUFAF4) | L/H ratio of acetylated peptide ILMEHIHK(ac)LK (SEQ ID NO: 735, 60S ribosomal protein L19 [144], RPL19) | L/H ratio of acetylated peptide K(ac)FDQLLAEEK (SEQ ID NO: 737, Isoform 1 of Myosin-9 [1445], MYH9) | L/H ratio of acetylated peptide FVEFDMK(ac)PVCK (SEQ ID NO: 738, Isoform 2 of LIM and senescent cell antigen-like-containing domain protein 2 [326], LIMS2) | L/H ratio of acetylated peptide KAEAQIAAK(ac)NLDK (SEQ ID NO: 740, Aspartate aminotransferase mitochondrial [90], GOT2) | L/H ratio of acetylated peptide ALCTGEK(ac)GFGYK (SEQ ID NO: 744, Peptidyl-prolyl cis-trans isomerase F mitochondrial [86], PPIF) | L/H ratio of acetylated peptide IYK(ac)SDGIK (SEQ ID NO: 745, ADP/ATP translocase 2 [166], SLC25A5) | L/H ratio of acetylated peptide VPK(ac)TAENFR (SEQ ID NO: 748, Peptidyl-prolyl cis-trans isomerase D [43], PPID) | L/H ratio of acetylated peptide VNCLDK(ac)FWHK (SEQ ID NO: 749, Isoform 1 of LIM and SH3 domain protein 1 [23], LASP1) | L/H ratio of acetylated peptide KGEDFVK(ac)TLK (SEQ ID NO: 750, Malate dehydrogenase mitochondrial [335], MDH2) | L/H ratio of acetylated peptide EAEFTK(ac)SIAK (SEQ ID NO: 751, Signal peptidase complex subunit 2 [191], LOC653566, SPCS2) | L/H ratio of acetylated peptide FEDK(ac)TVAYTEQK (SEQ ID NO: 754, Protein disulfide-isomerase A3 [218], PDIA3) | L/H ratio of acetylated peptide ILEFFGLK(ac)K (SEQ ID NO: 756, Protein disulfide-isomerase [308], P4HB) | light to heavy ratio (L/H ratio) of acetylated peptide LQDFK(ac)SFLLK (SEQ ID NO: 582) (Serine hydroxymethyltransferase mitochondrial [469], gene SHMT2, inhibitor:DMSO) | light to heavy ratio (L/H ratio) of acetylated peptide SFLLK(ac)DSETSQR (SEQ ID NO: 567) (Serine hydroxymethyltransferase mitochondrial [474], gene SHMT2, inhibitor:DMSO) | light to heavy ratio (L/H ratio) of acetylated peptide SGLLDK(ac)WK (SEQ ID NO: 602) (Signal peptidase complex subunit 2 [38], gene LOC653566, SPCS2, inhibitor:DMSO) | light to heavy ratio (L/H ratio) of acetylated peptide YDDPEVQK(ac)DIK (SEQ ID NO: 578) (Stress-70 protein mitochondrial [135], gene HSPA9, inhibitor:DMSO) | light to heavy ratio (L/H ratio) of acetylated peptide […](ac)SLAEHR (SEQ ID NO: 534) (Stress-induced-phosphoprotein 1 [325], gene STIP1, inhibitor:DMSO) | light to heavy ratio (L/H ratio) of acetylated peptide NICSK(ac)YSVR (SEQ ID NO: 256) (Thioredoxin domain-containing protein 5 [390], TXNDC5, MUTED, MUTED-TXNDC5, drug:DMSO) | light to heavy ratio (L/H ratio) of acetylated peptide SEIINSK(ac)NFDR (SEQ ID NO: 525) (Transmembrane protein 43 [159], gene TMEM43, inhibitor:DMSO) | light to heavy ratio (L/H ratio) of acetylated peptide VK(ac)[…] (SEQ ID NO: 562) (Tricarboxylate transport protein mitochondrial [149], gene SLC25A1, inhibitor:DMSO) | light to heavy ratio (L/H ratio) of acetylated peptide VPGK(ac)DTVTK (SEQ ID NO: 308) (Trifunctional enzyme subunit beta mitochondrial [272], HADHB, drug:DMSO)
−0.53 log 2: L/H ratio of acetylated peptide (SQSCETK(ac)LLDEK (SEQ ID NO: 410), Isoform 3 of Pro-interleukin-16 [277], IL16)
0.00: light to heavy ratio (L/H ratio) of acetylated peptide, log 2 scale (SFEEK(ac)VENLK (SEQ ID NO: 233), Isoform 1 of Tumor protein D52 [180], TPD52) | L/H ratio of acetylated peptide LFAK(ac)[…] (SEQ ID NO: 98) (SFPQ [319], log 2 scale, drug vs DMSO) | L/H ratio of acetylated peptide […](ac)MILIGR (SEQ ID NO: 100) (SFXN1 [86], log 2 scale, drug vs DMSO) | L/H ratio of acetylated peptide […](ac)DK (SEQ ID NO: 103) (SLC25A5 [92], log 2 scale, drug vs DMSO) | L/H ratio of acetylated peptide AFFK(ac)GAWSNVLR (SEQ ID NO: 102) (SLC25A5 [272], log 2 scale, drug vs DMSO) | L/H ratio of acetylated peptide […](ac)ANVAK (SEQ ID NO: 101) (SLC25A10 [173], log 2 scale, drug vs DMSO) | L/H ratio of acetylated peptide TWEK(ac)LLLAAR (SEQ ID NO: 104) (SNORA6, RPSAP15, SNORA62, RPSA [57], log 2 scale, drug vs DMSO) | L/H ratio of acetylated peptide […](ac)YGAIR (SEQ ID NO: 107) (SRSF1 [38], log 2 scale, drug vs DMSO) | L/H ratio of acetylated peptide (ac)AEPSAPESK(ac)HK (SEQ ID NO: 108) (STT3B [10], log 2 scale, drug vs DMSO) | light to heavy ratio (L/H ratio) of acetylated peptide, log 2 scale (TAMK(ac)YNLGLDLR (SEQ ID NO: 158), Glutamate dehydrogenase 1 mitochondrial [527], GLUD1) | light to heavy ratio (L/H ratio) of acetylated peptide, log 2 scale (TLQYK(ac)[…] (SEQ ID NO: 252), 40S ribosomal protein S16 [50], RPS16) | light to heavy ratio (L/H ratio) of acetylated peptide, log 2 scale (TPVIVTLK(ac)ENER (SEQ ID NO: 176), Hypoxia up-regulated protein 1 [75], HYOU1) | L/H ratio of acetylated peptide […](ac)YVPR (SEQ ID NO: 109) (TUBB2C [58], log 2 scale, drug vs DMSO) | L/H ratio of acetylated peptide ILAEGGGAK(ac)FK (SEQ ID NO: 110) (TUFM [91], log 2 scale, drug vs DMSO) | L/H ratio of acetylated peptide QIESK(ac)[…] (SEQ ID NO: 111) (TXN [8], log 2 scale, drug vs DMSO) | L/H ratio of acetylated peptide VYVAK(ac)[…] (SEQ ID NO: 113) (TXNDC5, MUTED, MUTED-TXNDC5 [118], log 2 scale, drug vs DMSO) | L/H ratio of acetylated peptide […](ac)YQGPR (SEQ ID NO: 112) (TXNDC5, MUTED, MUTED-TXNDC5 [150], log 2 scale, drug vs DMSO) | light to heavy ratio (L/H ratio) of acetylated peptide, log 2 scale (TYGEIFEK(ac)FHPIR (SEQ ID NO: 188), NADH dehydrogenase [ubiquinone] 1 subunit C2 [114], NDUFC2) | light to heavy ratio (L/H ratio), log 2 scale, acetylated peptide […](ac)YGK (SEQ ID NO: 817) (Transitional endoplasmic reticulum ATPase [109], gene VCP, drug:DMSO) | light to heavy ratio (L/H ratio), log 2 scale, acetylated peptide FGAPQK(ac)DVK (SEQ ID NO: 788) (Trifunctional enzyme subunit alpha mitochondrial [359], gene HADHA, drug:DMSO) | light to heavy ratio (L/H ratio), log 2 scale, acetylated peptide ILQEGVDPK(ac)K (SEQ ID NO: 789) (Trifunctional enzyme subunit alpha mitochondrial [569], gene HADHA, drug:DMSO) | L/H ratio of acetylated peptide VVVTK(ac)YCDPDSYHR (SEQ ID NO: 114) (U2AF2 [462], log 2 scale, drug vs DMSO) | L/H ratio of acetylated peptide FGIAAK(ac)[…] (SEQ ID NO: 115) (VDAC1 [224], log 2 scale, drug vs DMSO) | L/H ratio of acetylated peptide YK(ac)[…] (SEQ ID NO: 116) (VDAC2 [63], log 2 scale, drug vs DMSO) | L/H ratio of acetylated peptide YK(ac)[…] (SEQ ID NO: 117) (VDAC3 [63], log 2 scale, drug vs DMSO)
−0.63: L/H ratio of acetylated peptide (ac)[…](ac)AAK (SEQ ID NO: 6) (VDAC3 [12], log 2 scale, drug vs DMSO)
−0.47: L/H ratio of acetylated peptide […](ac)TAVAPIER (SEQ ID NO: 11) (SLC25A5 [23], log 2 scale, drug vs DMSO)
−0.45 log 2: L/H ratio of acetylated peptide (SQNTK(ac)[…] (SEQ ID NO: 458), Nucleoprotein TPR [713], TPR) | light to heavy ratio (L/H ratio) of acetylated peptide SNYK(ac)MMFVK (SEQ ID NO: 368) (Small acidic protein [174], C11orf58, drug:DMSO)
0.74 log 2: L/H ratio of acetylated peptide (TVSK(ac)[…] (SEQ ID NO: 428), 6-phosphogluconate dehydrogenase decarboxylating [38], PGD)
−0.38 log 2: L/H ratio of acetylated peptide (TTHLIAK(ac)EEMIHNLQ (SEQ ID NO: 435), 26S proteasome non-ATPase regulatory subunit 12 [448], PSMD12)
